# According to ChEMBL document CHEMBL1156997, “4,7-Dichloro benzothien-2-yl sulfonylaminomethyl boronic acid: first boronic acid-derived beta-lactamase inhibitor with class A, C, and D activity” (Bioorg Med Chem Lett, 2010):
# Tests used:
# [1] = biological target: Beta-lactamase (Pseudomonas aeruginosa (strain ATCC 15692 / PAO1 / 1C / PRS 101 / LMG12228)) (UniProt P24735); test: Inhibition of Pseudomonas aeruginosa beta-lactamase AmpC at 2 uM
# [2] = Inhibition of Pseudomonas aeruginosa beta-lactamase TEM-1
# Beta-lactamase [3] = biological target: Beta-lactamase (Acinetobacter baumannii, UniProt Q8RLA6); test: Inhibition of Acinetobacter baumannii beta-lactamase OXA40
# Beta-lactamase [4] = biological target: Beta-lactamase (Pseudomonas aeruginosa (strain ATCC 15692 / PAO1 / 1C / PRS 101 / LMG12228), UniProt P24735); test: Inhibition of Pseudomonas aeruginosa beta-lactamase AmpC
# Beta-lactamase SHV-5 = Beta-lactamase SHV-5 (Klebsiella pneumoniae, UniProt P0A3M1); test: Inhibition of Klebsiella pneumoniae beta-lactamase SHV5
# Beta-lactamase [5] = biological target: Beta-lactamase (Enterobacter cloacae, UniProt P05364); test: Inhibition of Enterobacter colacae P99 Beta-lactamase
# [6] = biological target: Beta-lactamase (Pseudomonas aeruginosa (strain ATCC 15692 / PAO1 / 1C / PRS 101 / LMG12228)) (UniProt P24735); test: Inhibition of Pseudomonas aeruginosa beta-lactamase AmpC at 0.8 uM
# Beta-lactamase (Pseudomonas aeruginosa (strain ATCC 15692 / PAO1 / 1C / PRS 101 / LMG12228)), sequence (P24735 27-397 limits assumed): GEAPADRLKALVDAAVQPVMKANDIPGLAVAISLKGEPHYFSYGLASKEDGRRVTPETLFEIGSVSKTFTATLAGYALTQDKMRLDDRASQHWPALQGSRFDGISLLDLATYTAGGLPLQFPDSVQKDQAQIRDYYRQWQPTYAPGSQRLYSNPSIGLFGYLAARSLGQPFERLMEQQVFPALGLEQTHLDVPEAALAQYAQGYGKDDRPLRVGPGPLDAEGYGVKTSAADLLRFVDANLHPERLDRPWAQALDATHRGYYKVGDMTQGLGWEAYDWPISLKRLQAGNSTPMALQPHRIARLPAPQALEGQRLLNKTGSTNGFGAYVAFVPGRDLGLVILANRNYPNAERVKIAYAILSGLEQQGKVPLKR
# Beta-lactamase SHV-5, sequence (P0A3M1 whole entry): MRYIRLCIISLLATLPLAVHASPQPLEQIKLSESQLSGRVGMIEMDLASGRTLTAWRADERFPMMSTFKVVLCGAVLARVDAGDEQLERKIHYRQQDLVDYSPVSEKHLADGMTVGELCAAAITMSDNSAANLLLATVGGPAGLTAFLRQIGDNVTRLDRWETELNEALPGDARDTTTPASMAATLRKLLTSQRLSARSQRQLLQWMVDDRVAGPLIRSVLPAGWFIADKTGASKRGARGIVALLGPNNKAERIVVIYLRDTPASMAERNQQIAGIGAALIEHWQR
# Beta-lactamase (Pseudomonas aeruginosa (strain ATCC 15692 / PAO1 / 1C / PRS 101 / LMG12228), UniProt P24735), sequence (P24735 whole entry): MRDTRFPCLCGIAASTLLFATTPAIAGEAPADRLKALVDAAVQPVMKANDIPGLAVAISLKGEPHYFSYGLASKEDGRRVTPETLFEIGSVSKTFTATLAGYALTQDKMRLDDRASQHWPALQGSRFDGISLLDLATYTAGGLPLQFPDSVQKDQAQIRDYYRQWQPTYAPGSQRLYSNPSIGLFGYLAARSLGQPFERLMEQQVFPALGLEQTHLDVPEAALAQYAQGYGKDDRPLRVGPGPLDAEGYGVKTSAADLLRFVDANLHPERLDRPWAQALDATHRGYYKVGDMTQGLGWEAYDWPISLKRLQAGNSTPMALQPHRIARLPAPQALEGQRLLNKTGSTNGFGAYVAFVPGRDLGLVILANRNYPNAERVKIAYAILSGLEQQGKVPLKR
# Beta-lactamase (Acinetobacter baumannii, UniProt Q8RLA6), sequence (Q8RLA6 whole entry): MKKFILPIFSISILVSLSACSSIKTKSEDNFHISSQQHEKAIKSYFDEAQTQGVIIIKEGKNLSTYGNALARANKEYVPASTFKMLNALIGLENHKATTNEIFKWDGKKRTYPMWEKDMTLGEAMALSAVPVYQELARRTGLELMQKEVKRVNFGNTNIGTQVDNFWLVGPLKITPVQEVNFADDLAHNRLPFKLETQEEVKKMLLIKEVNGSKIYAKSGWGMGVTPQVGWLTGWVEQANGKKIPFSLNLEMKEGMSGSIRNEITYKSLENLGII
# Beta-lactamase (Enterobacter cloacae, UniProt P05364), sequence (P05364 whole entry): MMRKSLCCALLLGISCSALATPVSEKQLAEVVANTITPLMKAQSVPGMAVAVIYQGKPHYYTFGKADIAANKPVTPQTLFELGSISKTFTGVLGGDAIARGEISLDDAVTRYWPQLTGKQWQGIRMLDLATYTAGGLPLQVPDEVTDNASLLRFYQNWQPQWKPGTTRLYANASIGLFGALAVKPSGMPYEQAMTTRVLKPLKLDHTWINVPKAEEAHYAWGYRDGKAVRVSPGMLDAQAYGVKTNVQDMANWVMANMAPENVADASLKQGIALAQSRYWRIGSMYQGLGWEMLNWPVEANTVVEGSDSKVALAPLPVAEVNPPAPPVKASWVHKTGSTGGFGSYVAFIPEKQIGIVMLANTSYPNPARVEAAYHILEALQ
inhibition [1],Compound,other results
11%,CC(C(=O)c1ccccc1)C(=O)C(F)(F)F (configuration not stated),–
5%,O=C(O)C1CCN1S(=O)(=O)c1cccnc1 (configuration not stated),–
18%,O=C(O)CNS(=O)(=O)c1ccc(CCCCC2CCNCC2)cc1,–
19%,O=C(CC(=O)C(F)(F)F)c1cccnc1,–
18%,O=C(CC(=O)C(F)(F)F)c1ccccc1,–
–,O=S(=O)(NCB(O)O)c1cc2c(Cl)ccc(Cl)c2s1,IC50 [2]: 1100 nM; IC50 (Beta-lactamase [3]): 5.6 µM; IC50 (Beta-lactamase [4]): 1200 nM; IC50 (Beta-lactamase SHV-5): 570 nM; IC50 (Beta-lactamase [5]): 620 nM
18%,O=C(O)C1CCCN1S(=O)(=O)c1ccccc1 (configuration not stated),–
–,O=S(=O)(NCB(O)O)c1ccccc1,inhibition [6]: 29%
9%,O=C(O)C1CCN1S(=O)(=O)c1cc(Cl)cc(Cl)c1 (configuration not stated),–
11%,CC(C(=O)c1cccs1)C(=O)C(F)(F)F (configuration not stated),–
4%,N#Cc1cc(Br)cc(S(=O)(=O)NCC(=O)O)c1,–
14%,O=C(CC(=O)C(F)(F)F)c1ccco1,–
-10%,CN(CC(=O)O)S(=O)(=O)c1ccc(N)cc1,–
